{"source": "patent US20250360137A1", "about": "“ENHANCEMENT OF THE EFFICACY OF SEROTONERGIC PSYCHEDELIC DRUGS IN THE TREATMENT OR PREVENTION OF CERTAIN NEUROPSYCHIATRIC DISORDERS THROUGH INHIBITION OF TYPE-9 PHOSPHODIESTERASES” (Freedom Biosciences, Inc., priority 2022, published 2025)", "test_system": "C57B6/J mice", "assay": "Psilocybin induced head twitch response (HTR) in mice, automated system with implanted ear magnets", "format": "in vivo", "experimental": "Illustrated herein is a dose-dependent decrease in hallucinogenic response (head-twitch response, HTR) to psilocybin administration by adding a PDE9 inhibitor.\nIn this experiment, it was determined whether the number of head twitches in 10 minutes in response to psilocybin administration in 7-10 week old C57B6/J mice (equal numbers of male and female) were reduced by PF-4447943, a prototypical PDE9 inhibitor. The experiment began with the mice receiving a 20-minute pretreatment with PF-4447943 or its associated vehicle (5% Cremophor, 5% dimethyl sulfoxide (DMSO), and 90% saline) followed by the test dose of psilocybin. Head twitch was assessed for 10 minutes in an automated system using implanted magnets in the mouse's ears. At least one week elapsed prior to reuse, and mice were used maximally twice. […] For instance, average HTR over 10 min in mice receiving 3 mg/kg psilocybin and no PF-4447943 was about 30, while average HTR over 10 min in mice receiving 3 mg/kg psilocybin plus 3 mg/kg PF-4447943 was about 20.\nIn another experiment, a psilocybin dose-response curve was generated in the presence and absence of a fixed dose of pre-administered PF-4447943. FIG. 2 depicts the results of HTR in mice receiving administration of a fixed dose of PF-4447943 (3 mg/kg IP) and various doses of psilocybin (0, 0.3, 1, 3, 10 mg/kg IP), in comparison with administration of psilocybin plus the PF-4447943 vehicle alone as a control."}
{"smiles": "C[C@@H]1CN(Cc2ncccn2)C[C@H]1c1nc2c(cnn2C2CCOCC2)c(=O)[nH]1", "note": "[PF-4447943, 6-[(3S,4S)-4-methyl-1-(pyrimidin-2-ylmethyl)pyrrolidin-3-yl]-1-(tetrahydro-2H-pyran-4-yl)-1,5-dihydro-4H-pyrazolo[3,4-d]pyrimidin-4-one]", "values": [{"measurement": "HTR after psilocybin following pretreatment with PF-4447943 compared to pretreatment with the PF-4447943 vehicle", "setting": "20-minute pretreatment, head twitch assessed for 10 minutes, FIG. 1", "value": "reduced"}, {"measurement": "average HTR over 10 min", "setting": "mice receiving 3 mg/kg psilocybin plus 3 mg/kg PF-4447943 (20-minute pretreatment), FIG. 1", "value": "about 20"}, {"measurement": "reduction of HTR", "setting": "pretreatment with 3 mg/kg PF-4447943 IP, across all doses of psilocybin (0, 0.3, 1, 3, 10 mg/kg IP) vs psilocybin plus vehicle, FIG. 2", "value": "about 40%"}]}
{"smiles": "CN(C)CCc1c[nH]c2cccc(OP(=O)(O)O)c12", "note": "[psilocybin, [3-[2-(dimethylamino)ethyl]-1H-indol-4-yl]dihydrogen phosphate]", "values": [{"measurement": "average HTR over 10 min", "setting": "mice receiving 3 mg/kg psilocybin and no PF-4447943 (vehicle pretreatment), FIG. 1", "value": "about 30"}]}
